The text below walks through data of US20240139214A1, “AGENT FOR SUPPRESSING IL-31 PRODUCTION AND PHARMACEUTICAL COMPOSITION CONTAINING THE SAME” (KYUSHU UNIVERSITY, NATIONAL UNIVERSITY CORPORATION, priority 2021, published 2024).

One assay has as its system mouse IL-31 gene. Briefly: IL-31 production inhibitory action: IL-31 gene expression by real-time PCR in antigen-stimulated CD4+ T cells from Dock8−/− AND Tg mice. Format: cell-based. The note with it: for activity at 0.156 µM / activity at 0.312 µM / activity at 0.625 µM / activity at 1.25 µM / activity at 0.078 µM / activity at 2.5 µM: Mus musculus, CD4+ T, 24 h, read-out: qPCR results (IL-31 production (%)): based on the case using 0.1% DMSO taken as 100%; for IL-31 production inhibitory action (in words, discussion of Table 1): relative to compound 1.

The next assay deals with CD4+ T cells. Briefly: T cell proliferation assay (PMA and ionomycin, 3H-thymidine incorporation). Format: cell-based, mouse. The note with it: Mus musculus, CD4+ T, 66 h, read-out: Cell proliferation (%): based on the case using 0.2% DMSO taken as 100%. As for the experimental part:
A T cell proliferation assay was performed by culturing CD4^+ T cells (5×10^4 cells) with T cell-depleted irradiated spleen cells (1×10^6 cells) in the presence of phorbol 12-myristate 13-acetate (PMA: 100 ng/ml; Sigma-Aldrich) and ionomycin (1 μg/ml; Sigma-Aldrich) for 66 hours. For the last 18 hours of culture, ^3H-thymidine (0.037 MBq) was added, and the incorporated radioactivity was measured with MicroBeta^2 (PerkinElmer, Inc., Waltham, MS).
A T cell proliferation assay was performed by culturing CD4^+ T cells (5×10^4 cells) with T cell-depleted irradiated spleen cells (1×10^6 cells) in the presence of phorbol 12-myristate 13-acetate (PMA: 100 ng/ml; Sigma-Aldrich) and ionomycin (1 μg/ml; Sigma-Aldrich) for 66 hours. Test compounds were added at various final concentrations at the start of culture. For the last 18 hours of culture, ^3H-thymidine (0.037 MBq) was added, and the incorporated radioactivity was measured with MicroBeta^2 (PerkinElmer, Inc., Waltham, MS). […]
(In general: Dividing cells build labelled thymidine or BrdU into new DNA.)

On to `O=C(O)c1ccc(-c2nnc(-c3cc(C(F)(F)F)ccc3Cl)o2)cc1` [Compound 32, 4-(5-(2-Chloro-5-(trifluoromethyl)phenyl)-1,3,4-oxadiazol-2-yl)benzoic Acid], for which, in the assay on mouse IL-31 gene, the activity at 0.156 µM is 35.5%, the activity at 0.312 µM was found to be 52.1%, the activity at 0.625 µM was 39.9% and the activity at 1.25 µM was found to be 53.5%. Also, in the assay with CD4+ T cells, the activity at 10 µM stood at 115%, the activity at 20 µM amounted to 92.7% and the activity at 40 µM was 91.8%.
`CC(C)c1ccc(/C=N/Nc2ccccc2)cc1` [Negative control compound 6, 1-(4-Isopropylbenzylidene)-2-phenylhydrazine, reference compound]: in the assay on mouse IL-31 gene, the “IL-31 production inhibitory action (in words, discussion of Table 1)” value (shortened to “IL-31 production inhibitory action”) is “completely lost”.
For the molecule `O=C(O)c1ccc(-c2cn(-c3cc(C(F)(F)F)ccc3Cl)nn2)cc1` [Compound 23, 4-(1-(2-Chloro-5-(trifluoromethyl)phenyl)-1H-1,2,3-triazol-4-yl)benzoic Acid], in the assay on mouse IL-31 gene, the activity at 0.156 µM was found to be 32.5%, the activity at 0.312 µM was found to be 46.4%, the activity at 0.625 µM was determined as 31.4% and the activity at 1.25 µM turned out to be 22.7%. Moreover, the activity at 5 µM in the assay on CD4+ T cells (5 μM) was 110%. Besides, in the assay on CD4+ T cells, the activity at 10 µM was 92.9%, the activity at 20 µM came to 88.5% and the activity at 40 µM is 68.9%.
As for `CC(C)c1ccc(-c2cnc(-c3ccc(C(=O)O)cc3)[nH]2)cc1` [Compound 26, 4-(5-(4-Isopropylphenyl)-1H-imidazol-2-yl)benzoic Acid], in the assay on mouse IL-31 gene, the activity at 0.625 µM worked out at 45.1% and the activity at 1.25 µM came to 26.2%. For the same molecule, in the assay on CD4+ T cells, the activity at 10 µM stood at 77.1%, the activity at 20 µM came out at 70.6% and the activity at 40 µM came to 64.6%.
Regarding `O=C(O)c1ccc(-c2cc(-c3cc(C(F)(F)F)ccc3Cl)no2)cc1` [Compound 21, 4-(3-(2-Chloro-5-(trifluoromethyl)phenyl)isoxazol-5-yl)benzoic Acid], in the assay with mouse IL-31 gene, the activity at 0.078 µM stood at 23.7%, the activity at 0.156 µM was 29.9%, the activity at 0.312 µM came out at 25.3% and the activity at 0.625 µM was found to be 23%. Also, in the assay with mouse IL-31 gene, the activity at 1.25 µM was found to be 38.2% and the activity at 2.5 µM was determined as 13.1%. In addition, in the assay on CD4+ T cells, the activity at 10 µM was 95.5%, the activity at 20 µM was 98.2% and the activity at 40 µM stood at 106%.
For `CN(C)c1ccc(/C=N/Nc2ccc(C(=O)O)cc2)c(O)c1` [Negative control compound 2, 4-(2-(4-(Dimethylamino)-2-hydroxybenzylidene)hydrazineyl)benzoic Acid, reference compound], the “IL-31 production inhibitory action” value in the assay with mouse IL-31 gene is on record as “tended to notably decrease”.
In the case of `O=C(O)c1ccc(-n2ccc(-c3cc(C(F)(F)F)ccc3Cl)n2)cc1` [Compound 30, 4-(3-(2-Chloro-5-(trifluoromethyl)phenyl)-1H-pyrazol-1-yl)benzoic Acid], in the assay on mouse IL-31 gene, the activity at 0.078 µM came to 41.5%, the activity at 0.156 µM came to 39.9%, the activity at 0.312 µM is 29.4% and the activity at 0.625 µM came out at 23.4%. For the same molecule, in the assay with mouse IL-31 gene, the activity at 1.25 µM worked out at 26.1% and the activity at 2.5 µM stood at 30.9%. For the same molecule, in the assay with CD4+ T cells, the activity at 10 µM is 98.3%, the activity at 20 µM is 90.3% and the activity at 40 µM turned out to be 76.4%.
As for `CC(C)c1ccc(/C=N/Nc2cccc(C(=O)O)c2)cc1` [Negative control compound 4, 3-(2-(4-Isopropylbenzylidene)hydrazineyl)benzoic Acid, reference compound], the “IL-31 production inhibitory action” value in the assay on mouse IL-31 gene is listed as “completely lost”.
In the case of `O=C(O)c1ccc(N/N=C/C2CCCCC2)cc1` [Negative control compound 7, 4-(2-(Cyclohexylmethylene)hydrazinyl)benzoic Acid, reference compound], the “IL-31 production inhibitory action” value with mouse IL-31 gene is recorded as “completely lost”.
For the molecule `CC(C)(C)c1ccc(/C=N/Nc2ccc(C(=O)O)cc2)cc1` [Compound 2, 4-(2-(4-(tert-Butyl)benzylidene)hydrazinyl)benzoic Acid], in the assay with mouse IL-31 gene, the “IL-31 production inhibitory action” value is “maintained”.
As for `CC(C)c1ccc(/C=N/Nc2ccccc2C(=O)O)cc1` [Negative control compound 5, 2-(2-(4-Isopropylbenzylidene)hydrazineyl)benzoic Acid, reference compound], the “IL-31 production inhibitory action” value with mouse IL-31 gene was “completely lost”.
For `CC(C)c1ccc(-c2cc(-c3ccc(C(=O)O)cc3)n[nH]2)cc1` [Compound 28, 4-(5-(4-Isopropylphenyl)-1H-pyrazol-3-yl)benzoic Acid], in the assay on mouse IL-31 gene, the activity at 0.156 µM stood at 73.2%, the activity at 0.312 µM stood at 70.6%, the activity at 0.625 µM was 42.6% and the activity at 1.25 µM is 28%. Besides, in the assay with CD4+ T cells, the activity at 10 µM turned out to be 99.9%, the activity at 20 µM came out at 89.5% and the activity at 40 µM was found to be 69.1%.
For the molecule `O=C(O)c1ccc(-c2cnc(-c3cc(C(F)(F)F)ccc3Cl)o2)cc1` [Compound 20, 4-(2-(2-Chloro-5-(trifluoromethyl)phenyl)oxazol-5-yl)benzoic Acid], in the assay with mouse IL-31 gene, the activity at 0.078 µM is 16.9%, the activity at 0.156 µM is 17.7%, the activity at 0.312 µM was 23.3% and the activity at 0.625 µM is 24.7%. In addition, in the assay with mouse IL-31 gene, the activity at 1.25 µM was determined as 22.1% and the activity at 2.5 µM was found to be 32.6%. In the assay on CD4+ T cells, the activity at 10 µM is 91.2%, the activity at 20 µM was 87.5% and the activity at 40 µM was determined as 86.7%.
Take `O=C(O)c1ccc(-c2cc(-c3cc(C(F)(F)F)ccc3Cl)[nH]n2)cc1` [Compound 29, 4-(5-(2-Chloro-5-(trifluoromethyl)phenyl)-1H-pyrazol-3-yl)benzoic Acid]: in the assay on mouse IL-31 gene, the activity at 0.156 µM is 59.1%, the activity at 0.312 µM was found to be 52.3%, the activity at 0.625 µM came to 61.9% and the activity at 1.25 µM worked out at 40.7%. Besides, the activity at 2.5 µM in the assay with mouse IL-31 gene stood at 63.6%. Besides, in the assay on CD4+ T cells, the activity at 10 µM was 88.6%, the activity at 20 µM came out at 77.7% and the activity at 40 µM amounted to 86%.
Turning to `CC(C)c1ccc(-c2nnc(-c3ccc(C(=O)O)cc3)o2)cc1` [Compound 31, 4-(5-(4-Isopropylphenyl)-1,3,4-oxadiazol-2-yl)benzoic Acid], in the assay with mouse IL-31 gene, the activity at 0.625 µM is 53.6% and the activity at 1.25 µM is 24%. Further, in the assay on CD4+ T cells, the activity at 10 µM amounted to 97.5%, the activity at 20 µM is 79.3% and the activity at 40 µM is 65.6%.
Turning to `O=C(O)c1ccc(-c2nc(-c3cc(C(F)(F)F)ccc3Cl)no2)cc1` [Compound 33, 4-(3-(2-Chloro-5-(trifluoromethyl)phenyl)-1,2,4-oxadiazol-5-yl)benzoic Acid], in the assay with mouse IL-31 gene, the activity at 0.078 µM was 57.7%, the activity at 0.156 µM is 48.9%, the activity at 0.312 µM turned out to be 37.9% and the activity at 0.625 µM was found to be 25.1%. Further, in the assay with mouse IL-31 gene, the activity at 1.25 µM came to 28% and the activity at 2.5 µM worked out at 29.7%. Also, in the assay with CD4+ T cells, the activity at 10 µM was determined as 73.5%, the activity at 20 µM was 66.7% and the activity at 40 µM amounted to 64.3%.
As to `CC(C)c1ccc(C(=O)Nc2nnc(-c3ccc(C(=O)O)cc3)s2)cc1` [Compound 34, 4-(5-(4-Isopropylbenzamido)-1,3,4-thiadiazol-2-yl)benzoic Acid], in the assay on mouse IL-31 gene, the activity at 0.625 µM stood at 48.3% and the activity at 1.25 µM came to 52.3%. Also, in the assay with CD4+ T cells, the activity at 10 µM turned out to be 79%, the activity at 20 µM came to 90.8% and the activity at 40 µM is 87.8%.
On to `CN(C)c1ccc(/C=N/Nc2ccc(C(=O)O)cc2)cc1` [Compound 3, 4-(2-(4-(Dimethylamino)benzylidene)hydrazinyl)benzoic Acid], for which the “IL-31 production inhibitory action” value in the assay on mouse IL-31 gene is listed as “maintained”.
Still for that read-out and setting: in the case of `CN(CC(O)CO)c1ccc(/C=N/Nc2ccc(C(=O)O)cc2)cc1` (centres unmarked) [Negative control compound 3, 4-(2-(4-((2,3-Dihydroxypropyl)(methyl)amino)benzylidene)hydrazineyl)benzoic Acid, reference compound] it was “tended to notably decrease”.
